Values joined by “and” are separate entries in the source; they are usually repeats but may differ in a detail not shown here. Equal values may be shown once. Toxic doses and inconclusive results are not listed. How the source made its calls: active means survival T/C of 150% or more; inactive means T/C below 125% in these data.
System: P388 leukemia ip, CD2F1 mice, survival T/C
Experiment: NCI In Vivo Anticancer Drug Screen. Data for tumor model P388 Leukemia (intraperitoneal) in CD2F1 (CDF1) mice
Conditions: endpoint: median survival time, higher = longer survival
In short: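 Mice carrying the transplanted tumor received test compound or vehicle. Survival was recorded in each group, and the value is the treated-group measurement divided by that of the vehicle-treated control group.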

[1] = dose: 50.0 mg/kg/injection, schedule: Q01DX009 (ip), vehicle: saline
[2] = dose: 100.0 mg/kg/injection, schedule: Q01DX009 (ip), vehicle: saline
[3] = dose: 200.0 mg/kg/injection, schedule: Q01DX009 (ip), vehicle: saline
[4] = dose: 50.0 mg/kg/injection, schedule: Q01DX009 (ip), vehicle: saline with Tween-80
[5] = dose: 60.0 mg/kg/injection, schedule: Q01DX005 (ip), vehicle: Klucel (hydroxypropylcellulose) (HPC)
[6] = dose: 120.0 mg/kg/injection, schedule: Q01DX005 (ip), vehicle: Klucel (hydroxypropylcellulose) (HPC)
[7] = dose: 50.0 mg/kg/injection, schedule: Q04DX003 (ip), vehicle: saline
[8] = dose: 100.0 mg/kg/injection, schedule: Q04DX003 (ip), vehicle: saline
[9] = dose: 120.0 mg/kg/injection, schedule: Q01DX005 (ip), vehicle: saline with Tween-80
[10] = dose: 25.0 mg/kg/injection, schedule: Q04DX002 (ip), vehicle: saline with Tween-80
[11] = dose: 50.0 mg/kg/injection, schedule: Q04DX002 (ip), vehicle: saline with Tween-80
[12] = dose: 100.0 mg/kg/injection, schedule: Q04DX002 (ip), vehicle: saline with Tween-80
[13] = dose: 60.0 mg/kg/injection, schedule: Q01DX005 (ip), vehicle: saline with Tween-80
[14] = dose: 240.0 mg/kg/injection, schedule: Q01DX005 (ip), vehicle: saline with Tween-80
[15] = dose: 50.0 mg/kg/injection, schedule: Q01DX005 (ip), vehicle: Klucel (hydroxypropylcellulose) (HPC)
[16] = dose: 100.0 mg/kg/injection, schedule: Q01DX005 (ip), vehicle: Klucel (hydroxypropylcellulose) (HPC)
[17] = dose: 200.0 mg/kg/injection, schedule: Q01DX005 (ip), vehicle: Klucel (hydroxypropylcellulose) (HPC)

Measured: T/C

COc1ccc(CCNC(=O)c2c3nc4c(C(=O)NCCc5ccc(OC)c(OC)c5)ccc(C)c4oc-3c(C)c(=O)c2N)cc1OC
inactive: dose: 100.0 mg/kg/injection, schedule: Q04DX003 (ip), vehicle: saline + alcohol 104 % of control | dose: 200.0 mg/kg/injection, schedule: Q04DX003 (ip), vehicle: saline + alcohol 102 % of control | dose: 400.0 mg/kg/injection, schedule: Q04DX003 (ip), vehicle: saline + alcohol 105 % of control

CCCC(=O)Nc1ncnc2c1ncn2C1OC2COP(=O)(O)OC2C1OC(=O)CCC (stereo not given)
inactive: dose: 3.13 mg/kg/injection, schedule: Q03HX012 (ip), vehicle: saline 114 % of control | dose: 6.25 mg/kg/injection, schedule: Q03HX012 (ip), vehicle: saline 112 % of control | dose: 12.5 mg/kg/injection, schedule: Q03HX012 (ip), vehicle: saline 112 % of control | dose: 25.0 mg/kg/injection, schedule: Q01DX009 (ip), vehicle: saline 96 % of control | dose: 25.0 mg/kg/injection, schedule: Q03HX012 (ip), vehicle: saline 112 % of control | [1] 96 % of control | dose: 50.0 mg/kg/injection, schedule: Q03HX012 (ip), vehicle: saline 116 % of control | [2] 96 % of control | dose: 100.0 mg/kg/injection, schedule: Q03HX012 (ip), vehicle: saline 108 % of control | [3] 104 % of control | dose: 400.0 mg/kg/injection, schedule: Q01DX009 (ip), vehicle: saline 109 % of control

O=C(O)c1cc(C(=O)O)cc(N2C(=O)c3ccccc3C2=O)c1
inactive: [1] 100 % of control | [2] 87 % of control | [3] 89 % of control

C=C1N(c2nc(Cl)nc(Cl)n2)c2ccccc2C1(C)C
inactive: dose: 12.5 mg/kg/injection, schedule: Q01DX009 (ip), vehicle: saline with Tween-80 113 % of control | dose: 25.0 mg/kg/injection, schedule: Q01DX009 (ip), vehicle: saline with Tween-80 104 % of control | [4] 124 % of control and 86 % of control

COc1ccc(C(c2cc3c(cc2O)OCO3)N2CCN(C(c3cc4c(cc3O)OCO4)c3ccc(OC)cc3OC)CC2)c(OC)c1 (stereo not given)
inactive: [5] 88 % of control | [6] 86 % of control

O=C(Nc1ccccc1)Nc1nncs1
inactive: dose: 1.56 mg/kg/injection, schedule: Q01DX009 (ip), vehicle: distilled water + Tween-80 104 % of control | dose: 3.13 mg/kg/injection, schedule: Q01DX009 (ip), vehicle: distilled water + Tween-80 109 % of control | dose: 6.25 mg/kg/injection, schedule: Q01DX009 (ip), vehicle: distilled water + Tween-80 103 % of control | dose: 12.5 mg/kg/injection, schedule: Q01DX009 (ip), vehicle: distilled water + Tween-80 104 % of control | dose: 25.0 mg/kg/injection, schedule: Q01DX009 (ip), vehicle: distilled water + Tween-80 104 % of control

COc1ccc(C(c2cc3c(cc2O)OCO3)N2CCN(C(c3ccc(OC)c(OC)c3)c3cc4c(cc3O)OCO4)CC2)cc1OC (stereo not given)
inactive: [5] 89 % of control | [6] 90 % of control | dose: 240.0 mg/kg/injection, schedule: Q01DX005 (ip), vehicle: Klucel (hydroxypropylcellulose) (HPC) 105 % of control

O=S(=O)(/N=C1/C=CC=CC1=C(N1CCOCC1)N1CCOCC1)c1ccccc1
inactive: [7] 104 % of control | [8] 111 % of control | dose: 200.0 mg/kg/injection, schedule: Q04DX003 (ip), vehicle: saline 105 % of control

OCC1OC(SC2OC(CO)C(O)C(O)C2O)C(O)C(O)C1O (stereo not given)
inactive: dose: 100.0 mg/kg/injection, schedule: Q01DX001 (ip), vehicle: water 114 % of control | dose: 200.0 mg/kg/injection, schedule: Q01DX001 (ip), vehicle: water 94 % of control | dose: 400.0 mg/kg/injection, schedule: Q01DX001 (ip), vehicle: water 100 % of control

N=C(N)N=Nc1ccc(O)cc1
inactive: [9] 119 % of control

Cc1ncc(CCl)n1Cc1ccccc1
inactive: dose: 15.0 mg/kg/injection, schedule: Q01DX005 (ip), vehicle: saline 105 % of control | dose: 30.0 mg/kg/injection, schedule: Q01DX005 (ip), vehicle: saline 106 % of control | dose: 60.0 mg/kg/injection, schedule: Q01DX005 (ip), vehicle: saline 99 % of control

[Cl][Pt+2][Cl].[NH-]c1ccc(C(=O)O)cc1[NH-]
inactive: dose: 6.25 mg/kg/injection, schedule: Q04DX002 (ip), vehicle: saline with Tween-80 100 % of control | dose: 12.5 mg/kg/injection, schedule: Q04DX002 (ip), vehicle: saline with Tween-80 102 % of control | [10] 100 % of control | [11] 110 % of control | [12] 120 % of control

NC(=O)c1c(-c2ccccc2)cn2c(C(=O)O)ccnc12
inactive: [13] 98 % of control | [9] 98 % of control | [14] 102 % of control

O=C(CC1=NC2NN(c3ccccc3)C(=O)C2=C1CC(=O)c1cccc([N+](=O)[O-])c1)c1cccc([N+](=O)[O-])c1 (stereo not given)
inactive: [13] 95 % of control | [9] 99 % of control | [14] 86 % of control

CCOC(=O)C1CC(c2ccccc2)=NN1c1ccccc1 (stereo not given)
inactive: dose: 25.0 mg/kg/injection, schedule: Q01DX009 (ip), vehicle: Klucel (hydroxypropylcellulose) (HPC) 96 % of control | dose: 50.0 mg/kg/injection, schedule: Q01DX009 (ip), vehicle: Klucel (hydroxypropylcellulose) (HPC) 96 % of control | dose: 100.0 mg/kg/injection, schedule: Q01DX009 (ip), vehicle: Klucel (hydroxypropylcellulose) (HPC) 99 % of control | dose: 200.0 mg/kg/injection, schedule: Q01DX009 (ip), vehicle: Klucel (hydroxypropylcellulose) (HPC) 99 % of control | dose: 400.0 mg/kg/injection, schedule: Q01DX009 (ip), vehicle: Klucel (hydroxypropylcellulose) (HPC) 96 % of control

O=[N+]([O-])O.[Mn].c1ccc(/C2=c3\cc/c([n-]3)=C(\c3ccccc3)c3ccc([n-]3)/C(c3ccccc3)=c3/cc/c([n-]3)=C(\c3ccccc3)c3ccc2[n-]3)cc1
inactive: [10] 100 % of control | [11] 94 % of control | dose: 100.0 mg/kg/injection, schedule: Q04DX002 (ip), vehicle: Klucel (hydroxypropylcellulose) (HPC) 108 % of control | [12] 94 % of control | dose: 400.0 mg/kg/injection, schedule: Q04DX002 (ip), vehicle: Klucel (hydroxypropylcellulose) (HPC) 108 % of control

CC1(C)CC(Nc2ccccc2)=CC(N2CCOCC2)=N1
inactive: [15] 103 % of control | [16] 100 % of control

COc1ccc2c3c([nH]c2c1)C(C)=NCC3
inactive: dose: 50.0 mg/kg/injection, schedule: Q01DX005 (ip), vehicle: saline 100 % of control | dose: 100.0 mg/kg/injection, schedule: Q01DX005 (ip), vehicle: saline 105 % of control

CC(=O)N=c1c(Br)cc(Br)c(C)n1O
inactive: [15] 93 % of control | [16] 99 % of control | [17] 102 % of control

CCCCCC(Cn1ccnc1)c1c(Cl)cccc1Cl (stereo not given)
inactive: dose: 25.0 mg/kg/injection, schedule: Q04DX003 (ip), vehicle: saline 103 % of control | [7] 100 % of control | [8] 91 % of control

Cc1ccc(C(=N)c2ccccc2Cc2cccc3ccccc23)c(C)c1
inactive: [4] 92 % of control | dose: 100.0 mg/kg/injection, schedule: Q01DX009 (ip), vehicle: saline with Tween-80 94 % of control | dose: 200.0 mg/kg/injection, schedule: Q01DX009 (ip), vehicle: saline with Tween-80 96 % of control

O=S(=O)(C#Cc1ccccc1)C(F)(F)F
inactive: dose: 100.0 mg/kg/injection, schedule: Q01DX001 (ip), vehicle: saline 105 % of control | dose: 200.0 mg/kg/injection, schedule: Q01DX001 (ip), vehicle: saline 105 % of control | dose: 400.0 mg/kg/injection, schedule: Q01DX001 (ip), vehicle: saline 106 % of control

CC1(C)Oc2ccc3ccc(=O)oc3c2C(O)C1O (stereo not given)
inactive: [15] 97 % of control | [16] 96 % of control | [17] 92 % of control

From PubChem BioAssay AID330 (DTP/NCI, 2004)
